pIC50: −log10 of the molar value.
Key:
[1] = tested on: MDA-MB-231; test: Cell viability MTS assay; format: cell-based, human
Method: (§1) Cell viability was determined by measuring the activity of dehydrogenase enzymes in metabolically active cells using a tetrazolium compound, MTS. The assay was performed as described in Promega Technical Bulletin No. 169 (CellTiter 96 Aqueous Non-Radioactive Cell Proliferation Assay). Thirteen human cancer cell lines were assayed (see, e.g., Table 1). Cells were maintained at 37° C., 5% CO2. Adherent cells were maintained DMEM media (4.5 g/L glucose) supplemented with 15% heat-inactivated FBS, 10 mM L-glutamine, and 10 mM Hepes pH 7.5. Suspension cells were maintained in RPMI 1640 media, supplemented with 10% heat-inactivated FBS and 10 mM Hepes pH 7.5. Briefly, cells were seeded in 96-well plates as set forth in Table 1 and incubated for 16-24 hours. Candidate compounds were serially diluted in DMSO, further diluted in cell culture media, and then added to cells (final DMSO concentration of 0.33%). Cells were incubated in the presence of candidate compound for 72 hours. MTS stock solution (MTS 2 gm/L, PMS […] in PBS) was added to the cells (final concentration MTS […] and PMS 7.67 mg/L) and incubated for 4 hours. SDS was added to a final concentration of 1.4% and absorbance at 490 nm was measured within two hours using a platereader. The IC50 was defined as the concentration of compound that results in a 50% reduction in the number of viable cells as compwered to control wells treated with DMSO only (0.33%) and was calculated using non-linear regression analyswas. IC50 values were given in Table 2 for the compounds listed.

[2] = tested on: HT29; test: Cell viability MTS assay; format: cell-based, human
Method: as §1

[3] = Homo sapiens, MDA-MB-231, 72 hours with compound
[4] = Homo sapiens, HT-29, 72 hours with compound

| pIC50 [1, 3] | pIC50 [2, 4] | pIC50 ([1]; 72 hours with compound) | pIC50 ([2]; 72 hours with compound) | Molecule |
| --- | --- | --- | --- | --- |
| 4.83 | 5.08 | – | – | O=C1NC(=O)[C@@H](c2cn3c4c(cccc24)CCC3)[C@@H]1c1ccc(Cl)cc1Cl (racemic) [Example 48, (±)-Trans-3-(5,6-dihydro-4H-pyrrolo[3,2,1-ij]quinolin-1yl)-4-(2,4-dichlorophenyl)pyrrolidine-2,5-dione] |
| 4.01 | 4.31 | – | – | O=C1NC(=O)[C@@H](c2cn3c4c(cccc24)CCC3)[C@@H]1c1ccc(OCc2ccccc2)cc1 (racemic) [Example 71, (±)-Trans-3-[4-(benzyloxy)phenyl]-4-(5,6-dihydro-4H-pyrrolo[3,2,1-ij]quinolin-1-yl)pyrrolidine-2,5-dione] |
| < 4.00 | < 4.00 | – | – | O=C1NC(=O)[C@@H](c2cn3c4c(cccc24)CNCC3)[C@@H]1c1c[nH]c2ccccc12 (racemic) [Example 75, (±)-Trans-3-(1H-indol-3-yl)-4-(1,2,3,4-tetrahydro-[1,4]diazepino[6,7,1-hi]indol-7-yl)-pyrrolidine-2,5-dione] |
| 4.37 | 4.56 | – | – | O=C1NC(=O)[C@@H](c2cn3c4c(cccc24)CCC3)[C@@H]1c1ccsc1 (racemic) [Example 45, (±)-Trans-3-(5,6-dihydro-4H-pyrrolo[3,2,1-ij]quinolin-1yl)-4-(thiophen-3-yl)pyrrolidine-2,5-dione] |
| – | – | 5.46 | 5.56 | NCC(=O)OCN1C(=O)[C@@H](c2c[nH]c3ccccc23)[C@H](c2cn3c4c(cccc24)CCC3)C1=O (racemic) [Example 58, (±)-trans-2-Amino-acetic acid-3-(5,6-dihydro-4H-pyrrolo[3,2,1-ij]quinolin-1-yl)-4-(1H-indol-3-yl)-2,5-dioxo-pyrrolidin-1-yl methyl ester] |
| < 4.00 | < 4.00 | – | – | O=C1NC(=O)C(c2cn3c4c(cccc24)CCC3)=C1c1cccs1 [Example 7, 3-(5,6-Dihydro-4H-pyrrolo[3,2,1-ij]quinolin-1-yl)-4-thiophen-2-yl-pyrrole-2,5-dione] |
| – | 4.98 | – | – | Cc1cccc(-c2ccc3[nH]cc([C@@H]4C(=O)NC(=O)[C@H]4c4cn5c6c(cccc46)CCC5)c3c2)c1 (racemic) [Example 39, (±)-Trans-3-(5,6-dihydro-4H-pyrrolo[3,2,1-ij]quinolin-1yl)-4-(5-(3-methylphenyl)-1H-indol-3-yl)pyrrolidine-2,5-dione] |
| 4.85 | 4.90 | – | – | O=C1NC(=O)[C@@H](c2cn3c4c(cccc24)CCC3)[C@@H]1c1ccc(OC(F)(F)F)cc1 (racemic) [Example 44, (±)-Trans-3-(5,6-dihydro-4H-pyrrolo[3,2,1-ij]quinolin-1yl)-4-(4-trifluoromethoxyphenyl)pyrrolidine-2,5-dione] |
| – | – | 5.50 | 5.54 | CC(N)C(=O)OCN1C(=O)[C@@H](c2c[nH]c3ccccc23)[C@H](c2cn3c4c(cccc24)CCC3)C1=O (mixture of isomers) [Example 57, (±)-trans-2-Amino-propionic acid-3-(5,6-dihydro-4H-pyrrolo[3,2,1-ij]quinolin-1-yl)-4-(1H-indol-3-yl)-2,5-dioxo-pyrrolidin-1-yl methyl ester] |
| < 4.00 | 4.04 | – | – | O=C1NC(=O)[C@@H](c2cn3c4c(cccc24)CN(C(=O)OCc2ccccc2)CC3)[C@@H]1c1c[nH]c2ccccc12 (racemic) [Example 74, (±)-Trans-7-[4-(1H-indol-3-yl)-2,5-dioxo-pyrrolidin-3-yl]-3,4-dihydro-1H-[1,4]diazepino[6,7,1-hi]indole-2-carboxylic acid benzyl ester] |
| – | – | – | 4.58 | (±)-Trans-3-(5,6-dihydro-4H-pyrrolo[3,2,1-ij]quinolin-1-yl)-4-(4-fluorophenyl)pyrrolidine-2,5-dione [Example 70] |
| – | 4.84 | – | – | O=C1NC(=O)[C@@H](c2cn3c4c(cccc24)CCC3)[C@@H]1c1ccccc1 (racemic) [Example 49, (±)-Trans-3-(5,6-dihydro-4H-pyrrolo[3,2,1-ij]quinolin-1yl)-4-phenyl-pyrrolidine-2,5-dione] |
| 5.45 | 5.44 | – | – | O=C(OCN1C(=O)[C@@H](c2c[nH]c3ccccc23)[C@H](c2cn3c4c(cccc24)CCC3)C1=O)c1ccncc1 (racemic) [Example 60, (±)-trans-Isonicotinic acid-3-(5,6-dihydro-4H-pyrrolo[3,2,1-ij]quinolin-1-yl)-4-(1H-indol-3-yl)-2,5-dioxo-pyrrolidin-1-ylmethyl ester] |
| 4.10 | < 4.00 | – | – | O=C1NC(=O)C(c2cn3c4c(cccc24)CCC3)=C1c1cc2ccccc2s1 [Example 13, 3-Benzo[b]thiophen-2-yl-4-(5,6-dihydro-4H-pyrrolo[3,2,1-ij]quinolin-1-yl)-pyrrole-2,5-dione] |
| 4.09 | 4.18 | – | – | O=C1NC(=O)C(c2cn3c4c(cccc24)CCC3)=C1c1ccccc1 [Example 12, 3-(5,6-Dihydro-4H-pyrrolo[3,2,1-ij]quinolin-1-yl)-4-phenyl-pyrrole-2,5-dione] |
| – | – | < 4.00 | < 4.00 | O=C1NC(=O)C(c2cn3c4c(cccc24)CN(C(=O)OCc2ccccc2)CC3)=C1c1c[nH]c2ccccc12 [Example 73, 7-[4-(1H-indol-3-yl)-2,5-dioxo-2,5-dihydro-1H-pyrrol-3-yl]-3,4-dihydro-1H-[1.4]diazepino[6,7,1-hi]indole-2-carboxylic acid benzyl ester] |
| 5.12 | 5.33 | – | – | O=C1NC(=O)[C@@H](c2cn3c4c(cccc24)CCC3)[C@@H]1c1c(Cl)cccc1Cl (racemic) [Example 41, (±)-Trans-3-(5,6-dihydro-4H-pyrrolo[3,2,1-ij]quinolin-1yl)-4-(2,6-dichlorophenyl)pyrrolidine-2,5-dione] |
| 4.36 | 4.43 | – | – | O=C1NC(=O)[C@@H](c2cn3c4c(cccc24)CCC3)[C@@H]1c1c[nH]c2ccc(-c3cccc4ccccc34)cc12 (racemic) [Example 37, (±)-Trans-3-(5,6-dihydro-4H-pyrrolo[3,2,1-ij]quinolin-1yl)-4-(5-(1-naphthyl)-1H-indol-3-yl)pyrrolidine-2,5-dione] |
| 4.31 | – | – | – | O=C1NC(=O)[C@@H](c2cn3c4c(cccc24)CCC3)[C@@H]1c1ccc(F)cc1 (racemic) [Example 70, (±)-Trans-3-(5,6-dihydro-4H-pyrrolo[3,2,1-ij]quinolin-1-yl)-4-(4-fluorophenyl)pyrrolidine-2,5-dione] |
| 4.88 | 4.97 | – | – | COc1ccc(-c2ccc3[nH]cc([C@@H]4C(=O)NC(=O)[C@H]4c4cn5c6c(cccc46)CCC5)c3c2)cc1 (racemic) [Example 38, (±)-Trans-3-(5,6-dihydro-4H-pyrrolo[3,2,1-ij]quinolin-1yl)-4-(5-(4-methoxyphenyl)-1H-indol-3-yl)pyrrolidine-2,5-dione] |
| 5.35 | 5.43 | – | – | CN(C)CC(=O)OCN1C(=O)[C@@H](c2c[nH]c3ccccc23)[C@H](c2cn3c4c(cccc24)CCC3)C1=O (racemic) [Example 59, (±)-trans-2-dimethylamino-acetic acid-3-(5,6-dihydro-4H-pyrrolo[3,2,1-ij]quinolin-1-yl)-4-(1H-indol-3-yl)-2,5-dioxo-pyrrolidin-1-ylmethyl ester] |
| 4.21 | 4.20 | – | – | O=C1NC(=O)C(c2cn3c4c(cccc24)CCC3)=C1c1ccccc1C(F)(F)F [Example 6, 3-(5,6-dihydro-4H-pyrrolo[3,2,1-ij]quinolin-1-yl)-4(2-trifluoromethyl-phenyl)-pyrrole-2,5-dione] |
| < 4.00 | < 4.00 | – | – | O=C1NC(=O)C(c2cn3c4c(cccc24)CCC3)=C1c1ccc(F)cc1Cl [Example 18, 3-(5,6-Dihydro-4H-pyrrolo[3,2,1-ij]quinolin-1-yl)-4-(2-chloro-4-fluoro-phenyl)-pyrrole-2,5-dione] |
| 4.54 | 4.11 | – | – | O=C1NC(=O)C(c2cn3c4c(cccc24)CCC3)=C1c1cccnc1 [Example 23, 3-(5,6-Dihydro-4H-pyrrolo[3,2,1-ij]quinolin-1-yl)-4-pyridine-3-yl-pyrrole-2,5-dione] |
| – | 4.98 | – | – | O=C1NC(=O)[C@@H](c2cn3c4c(cccc24)CCC3)[C@@H]1c1ccc(F)cc1Cl (racemic) [Example 40, (±)-Trans-3-(5,6-dihydro-4H-pyrrolo[3,2,1-ij]quinolin-1yl)-4-(2-chloro-4-fluorophenyl)pyrrolidine-2,5-dione] |
| 4.24 | – | – | – | O=C1NC(=O)C(c2cn3c4c(cccc24)CCC3)=C1c1ccc(F)cc1 [Example 67, 3-(5,6-dihydro-4H-pyrrolo[3,2,1-ij]quinolin-1-yl)-4-(4-fluorophenyl)-1H-pyrrole-2,5-dione] |

| Molecule | pIC50 [1, 3] | pIC50 [2, 4] | pIC50 ([1]; 72 hours with compound) | pIC50 ([2]; 72 hours with compound) |
| --- | --- | --- | --- | --- |
| 3-(4-Benzoyloxyphenyl)-4-(5,6-dihydro-4H-pyrrolo[3,2,1-ij]quinolin-1-yl)-pyrrole-2,5-dione [Example 29] | – | – | < 4.00 | < 4.00 |
| 3-(5,6-dihydro-4H-pyrrolo[3,2,1-ij]quinolin-1-yl)-4-(4-fluorophenyl)-1H-pyrrole-2,5-dione [Example 67] | – | – | – | 4.27 |

From US7713969B2, “Compositions and methods for treatment of cancer” (ArQule, Inc., priority 2005, dated 2010)
